Converted amounts (≈) assume the structure as drawn. Read-outs that look alike come from different tables or passages of the source.
Experiments:
[1] = tested on: L-929 (murine fibroblasts); assay: Cytotoxicity assay (MTT, 5 d); format: cell-based; conditions: Mus musculus, L929, 120 h
Procedure: Cytotoxicity Assay The murine fibroblast cell line L-929 was obtained from the German Collection of Microorganisms and Cell Cultures (DSMZ) and maintained under conditions recommended by the depositor. Cells were seeded at 6×10^3 cells per well of sterile 96-well plates in 180 μL complete medium and treated with the compounds in serial dilution after 2 h of equilibration. After 5 d, viability was assessed by the MTT method. After 1.5 h incubation with 0.5 mg/mL MTT reagent, cells were washed with PBS and 100 μL of 2-propanol/10 N HCl (250:1) was added. The absorbance at 570 nm was determined on a microplate reader and cell viability was expressed as percentage relative to the respective solvent control. Half-inhibitory concentrations (IC50) were determined by sigmoidal curve fitting.

C. glutamicum DSM-20300 = assay: Antimicrobial assay, MIC by microbroth dilution; format: cell-based; conditions: Corynebacterium glutamicum, DSM20300; 16 h, cation-adjusted Muller-Hinton broth
Procedure: (§1) Bacterial strains used in susceptibility assays (minimum inhibitory concentrations, MIC) were either part of our internal strain collection or were purchased form the German Collection of Microorganisms and Cell Cultures (DSMZ). All compounds were prepared as DMSO stocks and MIC values were determined in standard microbroth dilution assays. Overnight cultures of bacteria were diluted in cation-adjusted Muller-Hinton broth (BBL™, BD) and were adjusted to approximately 10^5 cfu/mL. […] Bacteria were grown in the presence of the derivatives in serial dilution for 16 h at their optimal growth temperature. MIC values were determined according to CLSI guidelines (antibiotic concentration at which no visible bacterial growth is observed).

B. subtilis DSM-10 = assay: Antimicrobial assay, MIC by microbroth dilution; format: cell-based; conditions: Bacillus subtilis, DSM10; 16 h, cation-adjusted Muller-Hinton broth
Procedure: as §1

S. aureus Newman = assay: Antimicrobial assay, MIC by microbroth dilution; format: cell-based; conditions: Staphylococcus aureus, NEWMAN; 16 h, cation-adjusted Muller-Hinton broth
Procedure: as §1

E. coli TolC (+PMBN) = assay: Antimicrobial assay, MIC by microbroth dilution with PMBN; format: cell-based; conditions: 16 h, 3 μg/mL polymyxin B nonapeptide (PMBN) added
Procedure: Bacterial strains used in susceptibility assays (minimum inhibitory concentrations, MIC) were either part of our internal strain collection or were purchased form the German Collection of Microorganisms and Cell Cultures (DSMZ). All compounds were prepared as DMSO stocks and MIC values were determined in standard microbroth dilution assays. Overnight cultures of bacteria were diluted in cation-adjusted Muller-Hinton broth (BBL™, BD) and were adjusted to approximately 10^5 cfu/mL. For the E. coli culture, 3 μg/mL of polymyxin B nonapeptide (PMBN) was added to increase permeability of the outer membrane as chlorotonils were previously shown to not penetrate into Gram-negative cells. Bacteria were grown in the presence of the derivatives in serial dilution for 16 h at their optimal growth temperature. MIC values were determined according to CLSI guidelines (antibiotic concentration at which no visible bacterial growth is observed).

[2] = tested on: P. falciparum 3D7 (sensitive strain); assay: Antiplasmodial in vitro drug sensitivity assay (HRP2-ELISA); format: cell-based; conditions: Plasmodium falciparum
Procedure: (§2) Two laboratory strains of P. falciparum, the chloroquine sensitive 3D7 and the multi-resistant Dd2 were kept in continuous culture as previously described (Trager and Jensen 1976). In brief, parasites were kept in complete culture medium (RPMI 1640, 25 mM HEPES, 2 mM L-glutamine, 50 μg/ml gentamicin and 0.5% w/v AlbuMAX) at 37° C., 5% CO2 and 5% oxygen at 5% hematocrit with daily change of medium. Synchronization was performed with sorbitol twice a week (Lambros and Vanderberg 1979).
(§3) In Vitro Drug Sensitivity Assay
(§4) All compounds were dissolved in DMSO at stock dilutions between 25 and 100 mM; the reference drug chloroquine diphosphate (MW: 515.86) was diluted in distilled water and DMSO, respectively. […] Antiplasmodial activity of the different compounds was tested in a drug sensitivity assay against the two laboratory strains using the histidine-rich protein 2 (HRP2) assay as described previously (Noedl 2005). In brief: 96 well plates were pre-coated with the different compounds in a threefold dilution before ring stage parasites were added in complete culture medium at a hematocrit of 1.5% and a parasitemia of 0.05% in a total volume of 225 μl per well. After three days of incubation plates were frozen until analyzed by HRP2-ELISA. All compounds were evaluated in duplicate in at least two independent experiments.

[3] = tested on: P. falciparum Dd2 (resistant strain); assay: as above; format: cell-based; conditions: Plasmodium falciparum
Procedure: as §2, §3, §4

[4] = Determination of water solubility, Method 2 (HPLC-MS standard curve, saturated solution in water); format: physicochemical; conditions: thermodynamic from solid; saturated solution in water, HPLC-MS standard curve
Procedure: (§5) Determination of Water Solubility
A standard curve with 10 calibration points of the compound of interest is plotted using HPLC-MS and serial dilution. The dilutions and stock solutions were prepared in THF as a solvent. Following the measurements, a saturated solution in water of the compound in study was also measured. Upon plotting the standard curve using the peak areas of the MS peaks, the water samples were plotted along the curve and the solubility was then calculated.

[5] = Determination of water solubility, Method 1 (suspension in tap water, weighing); format: physicochemical; conditions: thermodynamic from solid, room temperature, 18 h stirring, triplicates
Procedure: as §5
10 mg of compound was suspended in 1 L of tap water and the solution was stirred at room temperature for 18 h. Upon completion, solution was sonicated for another hour, centrifuged and the supernatant was separated from the precipitate. Both aliquots were lyophilized, and weighed. This procedure was performed in triplicates.

Plasmodium falciparum = conditions: starting parasitemia levels of 0.01, 0.05, 0.5 and […]; cited from earlier work
[6] = P. falciparum 3D7 (sensitive strain), read-out: IC50 against P. falciparum 3D7
[7] = P. falciparum Dd2 (resistant strain), read-out: IC50 against P. falciparum Dd2

SMILES | IC50 [1] [nM] | MIC (C. glutamicum DSM-20300) [µg/mL] | MIC (B. subtilis DSM-10) [µg/mL] | MIC (S. aureus Newman) [µg/mL] | MIC E. coli TolC (+PMBN) (E. coli TolC (+PMBN)) [µg/mL] | IC50 [2, 6] [nM] | IC50 [3, 7] [nM] | solubility [4] [µg/mL] | solubility at 18 h [5] [µg/mL] | Inoculum effect: difference in IC50 between lowest and highest parasitemia (Plasmodium falciparum) [fold] | IC50 ([2]; 3D7, read-out: IC50 against P. falciparum 3D7) [nM] | IC50 ([3]; DD2, read-out: IC50 against P. falciparum Dd2) [nM]
C[C@@H]1C(=O)O[C@@H](C)/C=C/C=C\[C@@H](C)[C@@H]2C=C[C@]3(C)C[C@]4(C)O[C@@H]4[C@@H](C)[C@H]3[C@@H]2C(=O)C(Cl)(Cl)C1=O [ChA-Epo1] | 10300 | > 3.2 | 3.2 (≈ 6.28 µM) | 3.2 (≈ 6.28 µM) | >3.2 | 96.5 | 229 | – | – | – | – | –
C[C@@H]1C(=O)O[C@@H](C)/C=C/C=C\[C@@H](C)[C@@H]2C=C[C@@H]3C[C@@](C)(O)[C@H](O[N+](=O)[O-])[C@@H](C)[C@H]3[C@@H]2C(=O)C(Cl)(Cl)C1=O [ChA-Epo2-ONO2] | – | 0.1 (≈ 0.179 µM) | 0.025 (≈ 0.0448 µM) | 0.025 (≈ 0.0448 µM) | 0.1 | 0.92 | 2.2 | 380 (≈ 680 µM) | 310 (≈ 555 µM) | – | – | –
CCN(CC)CCCC(C)Nc1ccnc2cc(Cl)ccc12 (stereo not shown) [Chloroquine, reference compound] | – | – | – | – | – | – | – | – | – | 5.6 | 7.4 | 292
C[C@H]1[C@H](OC(=O)CCC(=O)O)O[C@@H]2O[C@@]3(C)CC[C@H]4[C@H](C)CC[C@@H]1[C@@]24OO3 [artesunate] | – | – | – | – | – | – | – | – | – | 8.8 | – | –
